Measurements: publication PMC8739753 (ACS catalysis, 2021)
≈ marks a conversion by molar mass, not a printed value. Where “and” joins values, the source holds several entries; their conditions need not be identical. Identical values can stand only once.

Columns and labels:
B. anthracis 34f2 = type: cell-based; conditions: comparable to commercial antibiotic erythromycin
[1] = test system: vancomycin-resistant Enterococcus; experiment: Antimicrobial testing; type: cell-based; conditions: for MIC: Enterococcus
S. pneumonia ATCC 49619 = experiment: Antimicrobial testing; type: cell-based
E. coli TolC = type: cell-based
TamI WT and mutants [2] = conditions: range over WT and all variants tested
TamI WT and mutants [3] = experiment: Substrate-induced heme spin shift binding, several TamI P450s
TamI biocatalysts = experiment: In vitro analytical enzymatic reactions with TamI biocatalysts; type: biochemical, Streptomyces sp. 307-9; conditions: compound as substrate
[4] = test system: CC1=CC[C@H]2O[C@]1(C)O[C@H]([C@H](C)/C=C(C)/C=C/C(O)=C1/C(=O)CNC1=O)[C@H]2C; experiment: purified protein, by the assay type
TamI WT [5] = experiment: Total turnover number, TamI WT; conditions: compound as substrate
TamI WT [6] = experiment: Substrate-induced heme spin shift binding, TamI WT; conditions: TamI WT (parent enzyme)
TamL enzyme = TamL enzyme (Streptomyces sp. 307-9, UniProt D3Y1I2); experiment: Isothermal titration calorimetry with TamL
[7] = substrate: CC(/C=C/C(O)=C1/C(=O)CNC1=O)=C\[C@@H](C)[C@H]1O[C@@]2(C)O[C@H](C(=O)[C@@H]3O[C@@]32C)[C@@H]1C; experiment: purified protein, by the assay type; conditions: other: compound as substrate; P450 TamI WT
[8] = substrate: CC(C=CC(O)=C1C(=O)CNC1=O)=CC(C)C1OC2(C)OC(C(O)C=C2C)C1C; experiment: purified protein, by the assay type; conditions: other: compound as substrate; P450 TamI WT
[9] = substrate: CC1=CC(=O)[C@H]2O[C@]1(C)O[C@H]([C@H](C)/C=C(C)/C=C/C(O)=C1/C(=O)CNC1=O)[C@H]2C; experiment: purified protein, by the assay type; conditions: other: compound as substrate; P450 TamI WT

With `CC1=CC[C@H]2O[C@]1(C)O[C@H]([C@H](C)/C=C(C)/C=C/C(O)=C1/C(=O)CNC1=O)[C@H]2C` [compound 1, tirandamycin C] the “activity against B. anthracis 34f2 (in words)” value (B. anthracis 34f2) was “strong activity”, the MIC [1] was 25 µM (≈ 9.69 µg/mL) and the MIC (S. pneumonia ATCC 49619) was 12.5 µM (≈ 4.84 µg/mL). For the same molecule, the “activity against S. pneumonia ATCC 49619 (in words)” value (S. pneumonia ATCC 49619) was “enhanced activity” and the “activity against E. coli TolC (in words)” value (E. coli TolC) was “relatively weak activity”.

With `O=C(O)c1cn(C2CC2)c2cc(N3CCNCC3)c(F)cc2c1=O` [ciprofloxacin, reference compound] the MIC [1] was > 100 µM and the MIC (S. pneumonia ATCC 49619) was 1.56 µM (≈ 0.517 µg/mL).

`CNC(=O)[C@@H](C)[C@H]1C(=O)/C(=C(O)/C=C/C(C)=C/[C@@H](C)[C@H]2O[C@@]3(C)O[C@H](C=C[C@@]34CO4)[C@@H]2C)C(=O)N1[C@@H]1CC[C@H](O)[C@H](C)O1` [streptolydigin, reference compound] was tested, and the MIC [1] was > 100 µM and the MIC (S. pneumonia ATCC 49619) was > 100 µM.

With `CC1=CC(=O)[C@H]2O[C@]1(C)O[C@H]([C@H](C)/C=C(C)/C=C/C(O)=C1/C(=O)CNC1=O)[C@H]2C` [compound 3, tirandamycin D] the “activity against B. anthracis 34f2 (in words)” value (B. anthracis 34f2) was “strong activity”, the MIC [1] was > 100 µM and the MIC (S. pneumonia ATCC 49619) was 12.5 µM (≈ 5.02 µg/mL). The “activity against S. pneumonia ATCC 49619 (in words)” value (S. pneumonia ATCC 49619) was “enhanced activity”, the “TTN (mol substrate consumed/mol P450)” value (TamI WT and mutants [2]) was 313–340 and the Kd (TamI WT and mutants [3]; heme spin shift, range over WT and all variants tested) was 6.89 to 8.32 µM.

tirandamycin O’ [compound 10] was tested, and the “oxidative activity / product formation with TamI biocatalysts” value (TamI biocatalysts) was “failed to yield products”.

Molecule P450 TamI WT (Streptomyces sp. 307-9) has a Km [4] of 16.0 ± 2.6 µM, a kcat [4] of 0.497 ± 0.0317 s⁻¹ and a kcat/Km [4] of 31200 M⁻¹ s⁻¹.

In the case of `CC(/C=C/C(O)=C1/C(=O)CNC1=O)=C\[C@@H](C)[C@H]1O[C@@]2(C)O[C@H](C(=O)[C@@H]3O[C@@]32C)[C@@H]1C` [compound 4, Tirandamycin A], the “activity against VRE (in words)” value [1] is reported as “strongest activity”, the MIC [1] is reported as 6.25 µM (≈ 2.61 µg/mL) and the MIC (S. pneumonia ATCC 49619) is reported as 25 µM (≈ 10.4 µg/mL). The “TTN (mol substrate consumed/mol P450)” value (TamI WT [5]) was 143 and the Kd (TamI WT [6]) was “no shift observed”.

For `CC(C=CC(O)=C1C(=O)CNC1=O)=CC(C)C1OC2(C)OC(C(O)C=C2C)C1C` (stereo not drawn) [compound 2, tirandamycin E], the MIC [1] was > 100 µM, the MIC (S. pneumonia ATCC 49619) was > 100 µM and the Kd (TamL enzyme) was 2.26 µM. The spin shift (TamI WT and mutants [3]; the other P450s (than L101A_L295I) including the parent enzyme) was “no spin shift was observed”.

For `CC[C@H]1OC(=O)[C@H](C)[C@@H](O[C@H]2C[C@@](C)(OC)[C@@H](O)[C@H](C)O2)[C@H](C)[C@@H](O[C@@H]2O[C@H](C)C[C@H](N(C)C)[C@H]2O)[C@](C)(O)C[C@@H](C)C(=O)[C@H](C)[C@@H](O)[C@]1(C)O` [erythromycin, reference compound], the MIC [1] was 3.13 µM (≈ 2.3 µg/mL) and the MIC (S. pneumonia ATCC 49619) was 0.195 µM (≈ 0.143 µg/mL).

B1: P450 TamI WT (Streptomyces sp. 307-9) (protein)
chain: MPMLQDSVPLELDDAFMQDPHSVYARLNAEGSAHRVMMPPGVPVCGGLPVWLITGYEEVRSALADPRLSTDLNRTDRLFAQNEPDRNKRGAFSSALATHMLHSDPPDHTRLRKLVNKAFTSRAIEKLRPEIEQITGELLAALPDEDPVDLLDAFAFPLPIRVICLLLGVPLEEQENFKSWSKALVSGDSPAATAAASTAMIEYLGDLIERKRRTPTDDVLAALVSARDVDDRLTETELVSMAFLLFIGGHETTVNTLGNGTLHLMRNLDQWEALRQDRSLLPGAVEEFLRLESPLKHATFRCATEDLRIGDTAIPAGDFVLLALASANRDPERFGDPHTLDVRRPTGGHVAFGHGIHYCLGAPLARMEAQVAFGVLLDTFPAMRLAVDPEDMRWRTSTLIRGLHSLPVRLNRP
In the case of B1, the Km [7] is reported as 8.2 ± 1.0 µM, the kcat [7] is reported as 0.0006 ± 1.67e-05 s⁻¹ and the kcat/Km [7] is reported as 67 M⁻¹ s⁻¹ and 73.3 M⁻¹ s⁻¹. It also gave a Km [8] of 108.5 ± 25.9 µM, a kcat [8] of 0.000667 ± 0.000167 s⁻¹ and a kcat/Km [8] of 5 M⁻¹ s⁻¹. The Km [9] was 36.5 ± 7.1 µM, the kcat [9] was 0.113 ± 0.00833 s⁻¹ and the kcat/Km [9] was 3170 M⁻¹ s⁻¹.
